Results as given in ChEMBL document CHEMBL5505987 (Eur J Med Chem, 2024).
Calls of active or inactive are those of the source. The calls are words filed in the database; no cut-off is given here.

Experiments:
MDA-MB-231 [1] = test: Induction of apoptosis in human MDA-MB-231 cells assessed as increase in apoptotic rate at 1 uM incubated for 24 hrs by Annexin V-FITC/PI double staining by flow cytometry; format: functional
4T1 [2] = test: Induction of ROS production in mouse 4T1 cells at 1 to 4 uM incubated for 24 hrs by flow cytometry; format: functional, cell-based; details: dose 1-4 µM
4T1 [3] = test: Induction of apoptosis in mouse 4T1 cells assessed as increase in apoptotic rate at 1.5 uM incubated for 24 hrs by Annexin V-FITC/PI double staining by flow cytometry; format: functional
MDA-MB-231 [4] = test: Antimigratory activity against human MDA-MB-231 cells assessed as decrease in migration of tumor cells into scratching region at 8 to 10 uM incubated for 12 to 24 hrs by Wound healing assay; format: functional, cell-based; details: dose 8-10 µM, time 12-24 hrs
4T1 [5] = test: Induction of mitochondrial membrane potential loss in mouse 4T1 cells assessed as decrease in fluorescence intensity by JC-1 aggregate assay; format: functional, cell-based; details: dose 2-4 µM
MDA-MB-231 [6] = test: Induction of apoptosis in human MDA-MB-231 cells assessed as increase in cleaved caspase 9 expression at 1 to 4 uM incubated for 24 hrs by Western blotting analysis; format: functional, cell-based; details: dose 1-4 µM
MDA-MB-231 [7] = test: Induction of apoptosis in human MDA-MB-231 cells assessed as increase in cleaved PARP expression at 1 to 4 uM incubated for 24 hrs by Western blotting analysis; format: functional, cell-based; details: dose 1-4 µM
MDA-MB-231 [8] = test: Induction of cell cycle arrest in human MDA-MB-231 cells assessed as reduction in cyclin D1 expression at 1 to 4 uM measured after 24 hrs by immunoblotting assay; format: functional, cell-based; details: dose 1-4 µM
MDA-MB-231 [9] = test: Induction of apoptosis in human MDA-MB-231 cells assessed as increase in apoptotic rate incubated for 24 hrs in presence of SB-431542 TGF-beta signaling inhibitor by Annexin V-FITC/PI double staining by flow cytometry; format: functional, cell-based
MDA-MB-231 [10] = test: Anti-proliferative activity against human MDA-MB-231 cells assessed as cell viability measured after 24 hrs by MTT assay; format: functional, cell-based; details: dose 1-8 µM
MDA-MB-231 [11] = test: Induction of cell cycle arrest in human MDA-MB-231 cells assessed as accumulation of cells at G0/G1 phase at 4 uM measured after 24 hrs by PI staining by flow cytometry; format: functional
MDA-MB-231 [12] = test: Induction of cell cycle arrest in human MDA-MB-231 cells assessed as reduction in cyclin E1 expression at 1 to 4 uM measured after 24 hrs by immunoblotting assay; format: functional, cell-based; details: dose 1-4 µM
MDA-MB-231 [13] = test: Inhibition of colony formation in human MDA-MB-231 cells assessed as reduction in colony formation treated for 10 days medium refreshed every two days by crustal violet based assay; format: functional, cell-based; details: time 10.0 day
MDA-MB-231 [14] = test: Induction of mitochondrial membrane potential loss in human MDA-MB-231 cells assessed as decrease in fluorescence intensity by JC-1 aggregate assay; format: functional, cell-based; details: dose 2-4 µM
4T1 [15] = test: Anti-tumor activity against mouse 4T1 cells assessed as decrease in cell viability at 8 uM incubated for 24 hrs in presence of SB-431542 TGF-beta signaling inhibitor by MTT assay; format: functional, cell-based
4T1 [16] = test: Induction of cell cycle arrest in mouse 4T1 cells assessed as accumulation of cells at G0/G1 phase at 6 uM measured after 24 hrs by PI staining by flow cytometry; format: functional
MDA-MB-231 [17] = test: Reduction in PCNA protein expression in human MDA-MB-231 cells by Western blotting analysis; format: functional, cell-based; details: dose 1-4 µM
A549 = test: Cytotoxicity against human A549 cells assessed as cell viability by MTT assay; format: functional, cell-based
MDA-MB-231 [18] = test: Anti-tumor activity against human MDA-MB-231 cells assessed as change in TGF-beta1/Smad signaling pathway by measuring fluorescence intensity of TGF-beta1 level at 2 to 4 uM after 24 hrs incubation by immunofluorescence staining assay; format: functional, cell-based; details: dose 2-4 µM
MDA-MB-231 [19] = test: Reduction of ATP level in human MDA-MB-231 cells incubated for 24 hrs by colorimetric based ATP Content Assay Kit; format: functional, cell-based; details: dose 1-4 µM
MDA-MB-231 [20] = test: Induction of apoptosis in human MDA-MB-231 cells assessed as increase in cleaved caspase 3 expression at 1 to 4 uM incubated for 24 hrs by Western blotting analysis; format: functional, cell-based; details: dose 1-4 µM
4T1 [21] = test: Antimigratory activity against mouse 4T1 cells assessed as decrease in migration of tumor cells into scratching region at 8 to 10 uM incubated for 12 to 24 hrs by Wound healing assay; format: functional, cell-based; details: dose 8-10 µM, time 12-24 hrs
4T1 [22] = test: Reduction of ATP level in mouse 4T1 cells incubated for 24 hrs by colorimetric based ATP Content Assay Kit; format: functional, cell-based; details: dose 1-4 µM
MDA-MB-231 [23] = test: Anti-tumor activity against human MDA-MB-231 cells assessed as change in TGF-beta1/Smad signaling pathway by measuring fluorescence intensity of p-Smad2 level at 2 to 4 uM after 24 hrs incubation by immunofluorescence staining assay; format: functional, cell-based; details: dose 2-4 µM
MDA-MB-231 [24] = test: Cytotoxicity against human MDA-MB-231 cells assessed as cell viability by MTT assay; format: functional, cell-based
MCF7 = test: Cytotoxicity against human MCF7 cells assessed as cell viability by MTT assay; format: functional, cell-based
MDA-MB-231 [25] = test: Induction of cell cycle arrest in human MDA-MB-231 cells assessed as reduction in CDK6 expression at 1 to 4 uM measured after 24 hrs by immunoblotting assay; format: functional, cell-based; details: dose 1-4 µM
MDA-MB-231 [26] = test: Induction of apoptosis in human MDA-MB-231 cells assessed as decrease in Bcl-2 expression at 1 to 4 uM incubated for 24 hrs by Western blotting analysis; format: functional, cell-based; details: dose 1-4 µM
MDA-MB-231 [27] = test: Induction of cell cycle arrest in human MDA-MB-231 cells assessed as reduction in p-Rb expression at 1 to 4 uM measured after 24 hrs by immunoblotting assay; format: functional, cell-based; details: dose 1-4 µM
MDA-MB-231 [28] = test: Anti-metastatic activity in human MDA-MB-231 cells assessed as decrease in vimentin protein level at 1 to 4 uM by Western blotting analysis; format: functional, cell-based; details: dose 1-4 µM

Structure (SMILES): O=C1C[C@@H](c2ccccc2)Oc2cc(O)c([C@H](/C=C/C[C@@H](O)CCc3ccccc3)c3ccccc3)c(O)c21
- Activity (MDA-MB-231 [1]): 6.84%
- Activity (4T1 [2]): Active
- Activity (4T1 [3]): 6.84%
- Activity (MDA-MB-231 [4]): Active
- Activity (4T1 [5]): Dose-Dependent Effect
- Activity (MDA-MB-231 [6]): Active
- Activity (MDA-MB-231 [7]): Active
- Activity (MDA-MB-231 [8]): Active
- Activity (MDA-MB-231 [9]): inactive
- Activity (MDA-MB-231 [10]): Dose-Dependent Effect
- Activity (MDA-MB-231 [11]): 71.78%
- Activity (MDA-MB-231 [12]): Active
- inhibition (MDA-MB-231 [13]): Dose-Dependent Effect
- Activity (MDA-MB-231 [14]): Dose-Dependent Effect
- Activity (4T1 [15]): inactive
- Activity (4T1 [16]): 78.34%
- inhibition (MDA-MB-231 [17]): Dose-Dependent Effect
- IC50 (A549): 3.21 µM
- Activity (MDA-MB-231 [18]): Active
- inhibition (MDA-MB-231 [19]): Active
- Activity (MDA-MB-231 [20]): Active
- Activity (4T1 [21]): Active
- inhibition (4T1 [22]): Active
- Activity (MDA-MB-231 [23]): Active
- IC50 (MDA-MB-231 [24]): 4.33 µM
- IC50 (MCF7): 8.64 µM
- Activity (MDA-MB-231 [25]): Active
- Activity (MDA-MB-231 [26]): Active
- Activity (MDA-MB-231 [27]): Active
- Activity (MDA-MB-231 [28]): Active
